Test results as given in patent US8003682B2, “Indole compounds, a process for their preparation and pharmaceutical compositions containing them” (Les Laboratories Servier, priority 2006, dated 2011).

Legend:
MT2 receptor = biological target: T1, MT2 receptor (Homo sapiens, UniProt P49286); test: Melatonin MT2 receptor binding study (2-[125I]-iodomelatonin competition); settings: 2-[125I]-iodomelatonin radioligand, triplicate
T1 sequence (P49286 1-362): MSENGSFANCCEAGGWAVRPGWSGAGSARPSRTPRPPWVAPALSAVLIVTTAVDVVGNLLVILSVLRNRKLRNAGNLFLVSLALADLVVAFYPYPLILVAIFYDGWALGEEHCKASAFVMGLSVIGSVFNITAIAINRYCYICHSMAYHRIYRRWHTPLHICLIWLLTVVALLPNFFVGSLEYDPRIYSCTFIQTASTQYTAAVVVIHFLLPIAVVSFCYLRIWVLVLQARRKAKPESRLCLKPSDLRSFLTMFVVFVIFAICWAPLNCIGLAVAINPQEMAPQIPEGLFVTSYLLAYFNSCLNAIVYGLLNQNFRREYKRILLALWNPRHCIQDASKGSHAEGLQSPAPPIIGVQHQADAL
Experimental: (§1) The MT1 or MT2 receptor binding experiments are carried out using 2-[^125I]-iodomelatonin as reference radioligand. The radioactivity retained is determined using a liquid scintillation counter.
(§2) Competitive binding experiments are then carried out in triplicate using the various test compounds. A range of different concentrations is tested for each compound. The results enable the binding affinities (Ki) of the compounds tested to be determined.

MT1 receptor = MT1 receptor (Homo sapiens, UniProt P48039); test: Melatonin MT1 receptor binding study (2-[125I]-iodomelatonin competition); settings: 2-[125I]-iodomelatonin radioligand, triplicate
Sequence of MT1 receptor (P48039 whole entry): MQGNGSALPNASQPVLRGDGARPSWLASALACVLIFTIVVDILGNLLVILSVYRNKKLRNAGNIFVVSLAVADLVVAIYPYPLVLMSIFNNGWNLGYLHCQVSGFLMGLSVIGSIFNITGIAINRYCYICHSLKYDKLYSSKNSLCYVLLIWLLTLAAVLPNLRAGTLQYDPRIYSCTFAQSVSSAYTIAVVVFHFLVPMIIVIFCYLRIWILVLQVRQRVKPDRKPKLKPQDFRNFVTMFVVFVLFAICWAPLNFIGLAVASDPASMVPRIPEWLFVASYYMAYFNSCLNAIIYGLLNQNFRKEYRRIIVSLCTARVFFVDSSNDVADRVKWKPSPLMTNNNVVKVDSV
Experimental: as §1, §2

Compound CNC(=O)c1cc2ccc(OC)cc2n1CCNC(C)=O [Example 1, 1-[2-(Acetylamino)ethyl]-6-methoxy-N-methyl-1H-indole-2-carboxamide] has a Ki (MT2 receptor) of 1 nM and a Ki (MT1 receptor) of 18 nM.
